Where a SMILES comes first, the peptide text is derived from it. Bridges are numbered along the chain shown (N, C = ends).
How the values were obtained:
rat α3β2 nAChR = rat α3β2 nAChR (Rattus norvegicus, UniProt P04757+P12390); assay: cell-based
[1] = target: human CaV2.2 (α1B, β3, α2δ1) (Homo sapiens, UniProt Q00975); assay: cell-based
Sequence of human CaV2.2 (α1B, β3, α2δ1) (Q00975 whole entry, looked up): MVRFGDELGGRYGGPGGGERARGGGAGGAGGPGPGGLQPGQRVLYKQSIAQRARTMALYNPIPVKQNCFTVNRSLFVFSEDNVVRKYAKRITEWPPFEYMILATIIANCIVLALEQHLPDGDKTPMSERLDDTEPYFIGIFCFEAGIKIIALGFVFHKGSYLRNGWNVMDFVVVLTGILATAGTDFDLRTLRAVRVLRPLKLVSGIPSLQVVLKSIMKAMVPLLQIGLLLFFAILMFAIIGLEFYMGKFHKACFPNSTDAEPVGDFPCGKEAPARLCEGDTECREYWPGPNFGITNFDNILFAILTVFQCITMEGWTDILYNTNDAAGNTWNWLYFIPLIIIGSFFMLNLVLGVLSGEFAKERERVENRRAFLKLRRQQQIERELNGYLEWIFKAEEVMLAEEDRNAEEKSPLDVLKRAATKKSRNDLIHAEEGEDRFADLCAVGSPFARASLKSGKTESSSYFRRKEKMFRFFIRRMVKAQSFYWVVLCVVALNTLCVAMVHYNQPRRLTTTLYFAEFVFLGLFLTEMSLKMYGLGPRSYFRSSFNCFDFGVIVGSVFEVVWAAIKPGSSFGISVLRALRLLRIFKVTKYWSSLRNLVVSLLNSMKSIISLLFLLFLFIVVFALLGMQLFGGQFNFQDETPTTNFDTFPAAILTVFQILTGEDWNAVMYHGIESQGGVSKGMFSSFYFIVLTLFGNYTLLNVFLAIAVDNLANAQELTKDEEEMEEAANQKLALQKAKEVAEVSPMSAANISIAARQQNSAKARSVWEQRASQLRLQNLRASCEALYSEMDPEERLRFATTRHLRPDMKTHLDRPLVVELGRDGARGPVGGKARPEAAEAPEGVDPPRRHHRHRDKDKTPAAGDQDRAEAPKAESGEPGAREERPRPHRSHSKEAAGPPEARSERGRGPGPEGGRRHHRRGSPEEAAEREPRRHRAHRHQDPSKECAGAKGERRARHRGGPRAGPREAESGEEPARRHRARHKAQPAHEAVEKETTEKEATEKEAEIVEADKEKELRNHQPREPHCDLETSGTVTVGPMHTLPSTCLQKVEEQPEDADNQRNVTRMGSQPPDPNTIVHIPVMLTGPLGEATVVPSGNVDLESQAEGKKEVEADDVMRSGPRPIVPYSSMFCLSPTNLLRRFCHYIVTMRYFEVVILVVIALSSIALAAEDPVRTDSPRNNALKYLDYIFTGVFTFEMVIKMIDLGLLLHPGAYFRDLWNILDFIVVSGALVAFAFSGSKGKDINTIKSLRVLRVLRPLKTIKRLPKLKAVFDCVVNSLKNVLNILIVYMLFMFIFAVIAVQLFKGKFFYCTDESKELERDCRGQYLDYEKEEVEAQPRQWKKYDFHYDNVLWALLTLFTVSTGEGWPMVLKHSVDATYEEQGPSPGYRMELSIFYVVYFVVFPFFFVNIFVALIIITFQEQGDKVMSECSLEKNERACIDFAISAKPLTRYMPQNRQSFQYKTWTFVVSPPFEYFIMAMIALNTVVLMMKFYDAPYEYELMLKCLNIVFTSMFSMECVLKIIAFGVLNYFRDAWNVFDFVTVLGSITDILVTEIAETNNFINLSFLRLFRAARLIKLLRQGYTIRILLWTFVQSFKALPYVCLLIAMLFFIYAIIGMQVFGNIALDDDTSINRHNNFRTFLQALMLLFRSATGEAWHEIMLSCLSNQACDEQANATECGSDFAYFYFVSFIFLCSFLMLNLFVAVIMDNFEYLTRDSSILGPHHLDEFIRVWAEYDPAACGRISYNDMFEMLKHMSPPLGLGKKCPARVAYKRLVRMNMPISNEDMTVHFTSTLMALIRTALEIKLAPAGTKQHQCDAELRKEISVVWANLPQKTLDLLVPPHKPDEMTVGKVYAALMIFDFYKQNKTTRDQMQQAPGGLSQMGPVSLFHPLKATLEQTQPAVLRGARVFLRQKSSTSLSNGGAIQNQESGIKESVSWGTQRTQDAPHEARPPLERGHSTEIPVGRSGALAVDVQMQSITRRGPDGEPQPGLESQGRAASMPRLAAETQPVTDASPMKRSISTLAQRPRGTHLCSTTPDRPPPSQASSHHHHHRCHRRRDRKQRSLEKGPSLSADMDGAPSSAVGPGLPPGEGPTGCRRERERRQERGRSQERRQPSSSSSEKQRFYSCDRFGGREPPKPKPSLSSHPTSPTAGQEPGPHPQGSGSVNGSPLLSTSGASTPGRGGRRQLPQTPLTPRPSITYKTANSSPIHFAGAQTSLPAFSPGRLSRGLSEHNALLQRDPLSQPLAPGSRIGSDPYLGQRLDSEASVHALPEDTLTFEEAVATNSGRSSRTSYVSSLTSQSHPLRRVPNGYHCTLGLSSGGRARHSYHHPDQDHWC

Sequence of rat α3β2 nAChR (P04757 26-499 limits assumed): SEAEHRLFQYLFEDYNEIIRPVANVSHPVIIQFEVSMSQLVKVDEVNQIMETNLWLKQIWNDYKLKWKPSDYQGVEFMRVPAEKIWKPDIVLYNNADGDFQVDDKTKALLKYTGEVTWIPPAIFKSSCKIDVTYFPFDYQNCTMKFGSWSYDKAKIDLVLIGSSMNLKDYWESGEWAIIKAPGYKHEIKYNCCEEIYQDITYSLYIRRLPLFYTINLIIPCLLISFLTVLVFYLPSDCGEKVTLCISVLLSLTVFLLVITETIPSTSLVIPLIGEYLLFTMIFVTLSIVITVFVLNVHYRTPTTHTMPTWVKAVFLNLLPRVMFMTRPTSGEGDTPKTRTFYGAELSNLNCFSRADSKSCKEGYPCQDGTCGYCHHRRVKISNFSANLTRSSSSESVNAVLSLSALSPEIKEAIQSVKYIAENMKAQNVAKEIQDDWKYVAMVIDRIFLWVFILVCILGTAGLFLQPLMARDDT
Sequence of rat α3β2 nAChR (P12390 25-500 limits assumed): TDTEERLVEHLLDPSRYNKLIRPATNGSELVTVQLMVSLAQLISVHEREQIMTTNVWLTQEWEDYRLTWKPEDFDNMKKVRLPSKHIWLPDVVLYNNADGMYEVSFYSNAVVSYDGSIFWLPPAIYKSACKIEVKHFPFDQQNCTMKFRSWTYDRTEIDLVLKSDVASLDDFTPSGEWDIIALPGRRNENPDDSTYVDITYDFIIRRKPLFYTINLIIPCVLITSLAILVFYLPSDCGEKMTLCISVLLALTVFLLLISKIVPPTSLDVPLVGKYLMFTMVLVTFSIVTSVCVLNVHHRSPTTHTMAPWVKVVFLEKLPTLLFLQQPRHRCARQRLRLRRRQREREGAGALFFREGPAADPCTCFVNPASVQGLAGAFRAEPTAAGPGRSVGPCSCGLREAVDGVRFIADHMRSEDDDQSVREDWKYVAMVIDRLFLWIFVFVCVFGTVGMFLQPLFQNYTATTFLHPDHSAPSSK

Compound | IC50 (rat α3β2 nAChR) [µM] | change of potency at the α3β2 nAChR subtype compared with Vt1.27 (in words) (rat α3β2 nAChR) | inhibitory activity at CaV2.2 compared with Vt1.27 (in words; percent inhibition of IBa) [1] | Hillslope (rat α3β2 nAChR)
CC[C@H](C)[C@@H]1NC(=O)[C@@H]2CCCN2C(=O)[C@@H]2CSSC[C@H](NC(=O)[C@@H](N)CC(N)=O)C(=O)N[C@@H](CSSC[C@@H](C(N)=O)NC(=O)[C@H](CC(N)=O)NC(=O)[C@H](C)NC(=O)[C@H](CCCNC(=N)N)NC(=O)[C@H](CO)NC(=O)[C@H](Cc3ccc(O)cc3)NC(=O)[C@H](CC(=O)O)NC1=O)C(=O)N[C@@H](CCSC)C(=O)N[C@@H](Cc1ccccc1)C(=O)N[C@@H](Cc1c[nH]cn1)C(=O)N[C@@H]([C@@H](C)O)C(=O)N2 [Vt1.27[F15A]] (H-NCCMFHTCPIDYSRANC-NH2; disulfide 2-8, 3-17) | > 10 | a decrease in the potency | equipotent to the native peptide | 
CC[C@H](C)[C@@H]1NC(=O)[C@H](C)NC(=O)[C@@H]2CSSC[C@H](NC(=O)[C@@H](N)CC(N)=O)C(=O)N[C@@H](CSSC[C@@H](C(N)=O)NC(=O)[C@H](CC(N)=O)NC(=O)[C@H](Cc3ccccc3)NC(=O)[C@H](CCCNC(=N)N)NC(=O)[C@H](CO)NC(=O)[C@H](Cc3ccc(O)cc3)NC(=O)[C@H](CC(=O)O)NC1=O)C(=O)N[C@@H](CCSC)C(=O)N[C@@H](Cc1ccccc1)C(=O)N1CCC[C@H]1C(=O)N[C@@H]([C@@H](C)O)C(=O)N2 [Vt1.27[H6P、P9A]] (H-NCCMFPTCAIDYSRFNC-NH2; disulfide 2-8, 3-17) | > 10 | a significant loss of potency |  | 
CC[C@H](C)[C@@H]1NC(=O)[C@H](C)NC(=O)[C@@H]2CSSC[C@H](NC(=O)[C@@H](N)CC(N)=O)C(=O)N[C@@H](CSSC[C@@H](C(N)=O)NC(=O)[C@H](CC(N)=O)NC(=O)[C@H](Cc3ccccc3)NC(=O)[C@H](CCCNC(=N)N)NC(=O)[C@H](CO)NC(=O)[C@H](Cc3ccc(O)cc3)NC(=O)[C@H](CC(=O)O)NC1=O)C(=O)N[C@@H](CCSC)C(=O)N[C@@H](Cc1ccccc1)C(=O)N[C@@H](Cc1c[nH]cn1)C(=O)N[C@@H]([C@@H](C)O)C(=O)N2 [Vt1.27[P9A]] (H-NCCMFHTCAIDYSRFNC-NH2; disulfide 2-8, 3-17) | 9.4 | a sharp decrease in activity | decrease in inhibitory activity | -0.763
CC[C@H](C)[C@@H]1NC(=O)[C@@H]2CCCN2C(=O)[C@@H]2CSSC[C@H](NC(=O)[C@@H](N)CC(N)=O)C(=O)N[C@@H](CSSC[C@@H](C(N)=O)NC(=O)[C@H](CC(N)=O)NC(=O)[C@H](Cc3ccccc3)NC(=O)[C@H](C)NC(=O)[C@H](CO)NC(=O)[C@H](Cc3ccc(O)cc3)NC(=O)[C@H](CC(=O)O)NC1=O)C(=O)N[C@@H](CCSC)C(=O)N[C@@H](Cc1ccccc1)C(=O)N[C@@H](Cc1c[nH]cn1)C(=O)N[C@@H]([C@@H](C)O)C(=O)N2 [Vt1.27[R14A]] (H-NCCMFHTCPIDYSAFNC-NH2; disulfide 2-8, 3-17) | 2.86 | a decrease in the potency |  | -0.871
CC[C@H](C)[C@@H]1NC(=O)[C@@H]2CCCN2C(=O)[C@@H]2CSSC[C@H](NC(=O)[C@@H](N)CC(N)=O)C(=O)N[C@@H](CSSC[C@@H](C(N)=O)NC(=O)[C@H](CC(N)=O)NC(=O)[C@H](Cc3ccccc3)NC(=O)[C@H](CCCNC(=N)N)NC(=O)[C@H](CO)NC(=O)[C@H](C)NC(=O)[C@H](CC(=O)O)NC1=O)C(=O)N[C@@H](CCSC)C(=O)N[C@@H](Cc1ccccc1)C(=O)N[C@@H](Cc1c[nH]cn1)C(=O)N[C@@H]([C@@H](C)O)C(=O)N2 [Vt1.27[Y12A]] (H-NCCMFHTCPIDASRFNC-NH2; disulfide 2-8, 3-17) | 2.54 | a decrease in the potency |  | -1.577

— article PMC9230573 (Frontiers in Pharmacology, 2022)
